Where two headings read alike, the source gives them in different places.
How the values were obtained:
full-length human RORγt = full-length human RORγt (Homo sapiens (Human), UniProt P51449); experiment: RORγt (full-length human) reporter assay, Conditions B or C; type: cell-based; settings: Conditions B or C; for RORγt (FL) Reporter Assay B or C, % inhibition (value marked *): marked *: footnote not given
In short: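 HEK293T cells transiently co-transfected with GAL4-DBD–full-length human RORγt (nt 142-1635, NM_001001523.1) plus GAL4-firefly and CMV-Renilla luciferase reporters; compounds added 4-6 h post-transfection for 16-20 h in 1.3% FBS, 0.1% DMSO. Firefly signal normalized to DMSO and saturating reference compound, then to Renilla; IC50 from concentration plots.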

[1] = system: IL-17 production by CD4 T cells; experiment: Human Th17 assay; type: cell-based
Excerpt: The human Th17 assay tests the effect of RORγt modulatory compounds on IL-17 production by CD4 T cells under conditions which favor Th17 differentiation. Total CD4^+ T cells were isolated from the peripheral blood mononuclear cells (PBMC) of healthy donors using a CD4^+ T cell isolation kit II, following the manufacturer's instructions (Miltenyi Biotec). Cells were resuspended in a medium of RPMI-1640 supplemented with 10% fetal bovine serum, penicillin, streptomycin, glutamate, and β-mercaptoethanol and were added to 96-well plates at 1.5×10^5 per 100 μL per well. 50 μL of compound at titrated concentrations in DMSO were added into each well at final DMSO concentration at 0.2%. Cells were incubated for 1 hour, then 50 μL of Th17 cell differentiation medium was added to each well. The final concentrations of antibodies and cytokines (R&D Systems) in differentiation medium were: 3×10^6/mL anti-CD3/CD28 beads (prepared using human T cell activation/expansion kit, Miltenyi Biotec), 10 μg/mL anti-IL4, 10 μg/mL anti-IFNγ, 10 ng/mL IL1β, 10 ng/mL IL23, 50 ng/mL IL6, 3 ng/mL TGFβ and 20 U/mL IL2. Cells were cultured at 37° C. and 5% CO2 for 3 days. Supernatants were collected and the accumulated IL-17 in culture was measured by using MULTI-SPOT® Cytokine Plate following manufacture's instruction (Meso Scale Discovery). The plate was read using Sector Imager 6000, and IL-17 concentration was extrapolated from the standard curve. The IC50s were determined by GraphPad.

[2] = read-out: RORγt (FL) Reporter Assay B or C, IC50
[3] = read-out: Human Th17 Assay, IC50 (μM)
[4] = read-out: Human Th17 Assay, IC50

Sequence of full-length human RORγt (P51449 other isoform, or with tags, fused parts or gaps): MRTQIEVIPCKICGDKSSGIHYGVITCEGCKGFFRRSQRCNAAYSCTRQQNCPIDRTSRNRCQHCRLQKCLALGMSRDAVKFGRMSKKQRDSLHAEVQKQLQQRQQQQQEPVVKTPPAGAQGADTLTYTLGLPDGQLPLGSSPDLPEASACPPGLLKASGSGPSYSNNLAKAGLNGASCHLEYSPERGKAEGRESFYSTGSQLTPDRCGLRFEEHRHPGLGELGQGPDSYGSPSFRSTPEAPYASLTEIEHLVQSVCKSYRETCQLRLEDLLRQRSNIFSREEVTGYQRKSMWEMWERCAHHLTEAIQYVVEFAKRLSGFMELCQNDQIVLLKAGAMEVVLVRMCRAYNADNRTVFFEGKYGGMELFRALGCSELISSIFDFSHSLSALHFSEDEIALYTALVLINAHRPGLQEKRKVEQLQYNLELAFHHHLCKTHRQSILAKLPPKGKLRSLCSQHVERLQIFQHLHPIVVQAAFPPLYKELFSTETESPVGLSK

SMILES	RORγt (FL) Reporter Assay B or C, % inhibition (value marked *) (full-length human RORγt)	IC50 (full-length human RORγt; [2])	IC50 [1, 4]	IC50 [1, 3]	IC50 (full-length human RORγt; RORγt (FL) Reporter Assay B or C, IC50 (μM))
C[C@H](Nc1cc(C(F)(F)F)c(-c2sc(C(=O)NCC(C)(C)O)nc2C(=O)N2C3CCC2CC3)cn1)C1CC1 [Example 51, 4-((1s,4s)-7-Azabicyclo[2.2.1]heptane-7-carbonyl)-5-(6-(((S)-1-cyclopropylethyl)amino)-4-(trifluoromethyl)pyridin-3-yl)-N-(2-hydroxy-2-methylpropyl)thiazole-2-carboxamide]	101* %	0.0048 µM		0.021 µM	
C[C@H]1CCCN1C(=O)c1nc(C(=O)NCC(C)(C)O)sc1-c1cnc(NC(C)(C)C)cc1C(F)(F)F [Example 52, (S)-5-(6-(tert-Butylamino)-4-(trifluoromethyl)pyridin-3-yl)-N-(2-hydroxy-2-methylpropyl)-4-(2-methylpyrrolidine-1-carbonyl)thiazole-2-carboxamide]	106* %	0.0088 µM	0.01 µM		
CC[C@H](Nc1cc(C(F)F)c(-c2sc(C(=O)NCC(C)(C)O)nc2C(=O)N2CC(F)(F)C[C@@H]2C)cn1)C(F)(F)F [Example 90, 4-((S)-4,4-Difluoro-2-methylpyrrolidine-1-carbonyl)-5-(4-(difluoromethyl)-6-(((S)-1,1,1-trifluorobutan-2-yl)amino)pyridin-3-yl)-N-(2-hydroxy-2-methylpropyl)thiazole-2-carboxamide]	86* %	0.11 µM	0.076 µM		
CC(C)(C)CNc1cc(C(F)F)c(-c2sc(C(=O)NCC(C)(C)O)nc2C(=O)N2C3CCC2CC3)cn1 [Example 116, 4-((1s,4s)-7-Azabicyclo[2.2.1]heptane-7-carbonyl)-5-(4-(difluoromethyl)-6-(neopentylamino)pyridin-3-yl)-N-(2-hydroxy-2-methylpropyl)thiazole-2-carboxamide]	110* %	0.034 µM		0.044 µM	
CC(C)(O)CNC(=O)c1nc(C(=O)N2C3CCC2CC3)c(-c2cnc(NCC(C)(C)C(F)(F)F)cc2C(F)(F)F)s1 [Example 122, 4-((1s,4s)-7-Azabicyclo[2.2.1]heptane-7-carbonyl)-N-(2-hydroxy-2-methylpropyl)-5-(6-((3,3,3-trifluoro-2,2-dimethylpropyl)amino)-4-(trifluoromethyl)pyridin-3-yl)thiazole-2-carboxamide]	102* %	0.033 µM		0.02 µM	
C[C@H]1CC(F)(F)CN1C(=O)c1nc(C(=O)NCC(C)(C)O)sc1-c1cnc(NC2(C(F)(F)F)CCC2)cc1C(F)F [Example 124, (S)-4-(4,4-Difluoro-2-methylpyrrolidine-1-carbonyl)-5-(4-(difluoromethyl)-6-((1-(trifluoromethyl)cyclobutyl)amino)pyridin-3-yl)-N-(2-hydroxy-2-methylpropyl)thiazole-2-carboxamide]	108* %	0.021 µM	0.0067 µM		
CC(C)(O)CNC(=O)c1nc(C(=O)N2C3CCC2CC3)c(-c2cnc(NC3(C)CCC3)cc2C(F)(F)F)s1 [Example 140, 4-((1s,4s)-7-Azabicyclo[2.2.1]heptane-7-carbonyl)-N-(2-hydroxy-2-methylpropyl)-5-(6-((1-methylcyclobutyl)amino)-4-(trifluoromethyl)pyridin-3-yl)thiazole-2-carboxamide]	89* %	0.011 µM		0.011 µM	
CC(C)(O)CNC(=O)c1nc(C(=O)N2C3CCC2CC3)c(-c2cnc(NC3(C)CCC3)cc2C(F)F)s1 [Example 169, 4-((1s,4s)-7-Azabicyclo[2.2[1]heptane-7-carbonyl)-5-(4-(difluoromethyl)-6-((1-methylcyclobutyl)amino)pyridine-3-yl)-N-(2-hydroxy-2-methylpropyl))thiazole-2-carboxamide]	94* %			0.034 µM	0.012 µM
C[C@H](NC(=O)c1nc(C(=O)N2CC(F)(F)C[C@@H]2C)c(-c2cnc(N[C@@H](C)C(F)(F)F)cc2C(F)F)s1)C(C)(C)O [Example 197]	91* %	0.066 µM	0.03 µM		

Continued, in another order:

RORγt (FL) Reporter Assay B or C, % inhibition (value marked *) (full-length human RORγt)	IC50 (full-length human RORγt; [2])	IC50 [1, 4]	SMILES	IC50 [1, 3]	IC50 (full-length human RORγt; RORγt (FL) Reporter Assay B or C, IC50 (μM))
110* %	0.049 µM	0.014 µM	C[C@H](Nc1cc(C(F)(F)F)c(-c2sc(C(=O)NCC(C)(C)O)nc2C(=O)N2CCC[C@@H]2C)cn1)C(F)(F)F [Example 78, N-(2-Hydroxy-2-methylpropyl)-4-((S)-2-methylpyrrolidine-1-carbonyl)-5-(4-(trifluoromethyl)-6-(((S)-1,1,1-trifluoropropan-2-yl)amino)pyridin-3-yl)thiazole-2-carboxamide]		
127* %	0.013 µM	0.0028 µM	C[C@H]1CCCCN1C(=O)c1nc(C(=O)NCC(C)(C)O)sc1-c1cnc(NCC(C)(C)C)cc1C(F)(F)F [Example 86, (S)—N-(2-Hydroxy-2-methylpropyl)-4-(2-methylpiperidine-1-carbonyl)-5-(6-(neopentylamino)-4-(trifluoromethyl)pyridin-3-yl)thiazole-2-carboxamide]		
140* %	0.029 µM	0.025 µM	C[C@H]1CCCN1C(=O)c1nc(C(=O)NCC(C)(C)O)sc1-c1cnc(NCC(C)(C)C)cc1C(F)(F)F [Example 87, (S)—N-(2-Hydroxy-2-methylpropyl)-4-(2-methylpyrrolidine-1-carbonyl)-5-(6-(neopentylamino)-4-(trifluoromethyl)pyridin-3-yl)thiazole-2-carboxamide]		
106* %	0.029 µM	0.017 µM	CC[C@H](Nc1cc(C(F)(F)F)c(-c2sc(C(=O)NCC(C)(C)O)nc2C(=O)N2CCC[C@@H]2C)cn1)C(F)(F)F [Example 111, N-(2-Hydroxy-2-methylpropyl)-4-((S)-2-methylpyrrolidine-1-carbonyl)-5-(6-(((S)-1,1,1-trifluorobutan-2-yl)amino)-4-(trifluoromethyl)pyridin-3-yl)thiazole-2-carboxamide]		
115* %	0.028 µM	0.022 µM	C[C@H]1CC(F)(F)CN1C(=O)c1nc(C(=O)NCC(C)(C)O)sc1-c1cnc(NCC(C)(C)C)cc1C(F)F [Example 115, (S)-4-(4,4-Difluoro-2-methylpyrrolidine-1-carbonyl)-5-(4-(difluoromethyl)-6-(neopentylamino)pyridin-3-yl)-N-(2-hydroxy-2-methylpropyl)thiazole-2-carboxamide]		
100* %	0.039 µM	0.044 µM	C[C@H](Nc1cc(C(F)F)c(-c2sc(C(=O)NCC(C)(C)O)nc2C(=O)N2CC(F)(F)C[C@@H]2C)cn1)C(F)(F)F [Example 135]		
100* %	0.023 µM	0.0055 µM	C[C@H]1CC(F)(F)CN1C(=O)c1nc(C(=O)NCC(C)(C)O)sc1-c1cnc(NC2(C)CCC2)cc1C(F)(F)F [Example 141, (S)-4-(4,4-Difluoro-2-methylpyrrolidine-1-carbonyl)-N-(2-hydroxy-2-methylpropyl)-5-(6-((1-methylcyclobutyl)amino)-4-(trifluoromethyl)pyridin-3-yl)thiazole-2-carboxamide]		
109* %	0.027 µM	0.019 µM	C[C@H](Nc1cc(C(F)(F)F)c(-c2sc(C(=O)NCC(C)(C)O)nc2C(=O)N2CC(F)(F)C[C@@H]2C)cn1)C1CC1 [Example 142, 5-(6-(((S)-1-Cyclopropylethyl)amino)-4-(trifluormethyl)pyridin-3-yl)-4-((S)-4,4-difluoro-2-methylpyrrolidine-1-carbonyl)-N-(2-hydroxy-2-methylpropyl)thiazole-2-carboxamide]		
106* %	0.076 µM	0.013 µM	C[C@H](Nc1cc(C(F)F)c(-c2sc(C(=O)NCC(C)(C)O)nc2C(=O)N2CCCC[C@@H]2C)cn1)C(F)(F)F [Example 144]		
94* %	0.12 µM	0.1 µM	C[C@H](NC(=O)c1nc(C(=O)N2CCC[C@@H]2C)c(-c2cnc(N[C@@H](C)C(F)(F)F)cc2C(F)F)s1)C(C)(C)O [Example 199, 5-(4-(Difluoromethyl)-6-(((S)-1,1,1-trifluoropropan-2-yl)amino)pyridine-3-yl)-N—((S)-3-hydroxy-3-methylburan-2-yl)-4-((S)-2-methylpyrrolidine-1-carbonyl)thiazole-2-carboxamide]		
